Like-named read-outs stand apart in the source and are kept apart here.
Assays:
[1] = tested on: Male Wistar rats; assay: Subchronic treatment in rats: food intake, body weight, body composition (EchoMRI); assay type: in vivo, rat; settings: vs vehicle, n = 6/group; for Food intake: measured twice a week, cage means; for Body weight: monitored weekly
Procedure: All experiments were in accordance with internationally accepted principles for the care and use of laboratory animals and in compliance with an animal experiment license (2013/15–2934-00833) issued (to JH) by the Danish Committee for Animal Research. Male Wistar rats (Taconic, Denmark) weighing ~200 g at the time of arrival were housed two in each cage at the Panum Institute, Copenhagen, Denmark. They were kept in temperature- (21°C) and humidity-controlled (55%) rooms with light/dark cycles of 12 h with free access to standard rat chow and water.
(§1) After 1 week of acclimatization, animals were allocated into five groups (n = 6/each group). Rats received either vehicle, rat GIP(3-30)NH2, (25 nmol/kg b.w.), human (Pro3)GIP (25 nmol/kg b.w.), human GLP-2(3-33) (25 nmol/kg b.w.), or human GLP-2(11-33) (25 nmol/kg b.w.) sc daily at 6 PM for 3 weeks. […] To study bone resorption, blood was collected from the sublingual vein of rats at −2, −1, 0, 6, 10, 14, 17, 21 days of treatment. The day after the last injection, the rats were euthanized and blood was collected from the vena cava for further biochemical analysis. The liver was excised and samples were snap-frozen in liquid nitrogen and stored at −80°C until assayed.
Food intake was measured twice a week during the study period at 10 AM by subtracting the leftover weights from the initial weights and calculated as cage means (g/rat). Body weight was monitored weekly at 10 AM. Measures of body lean and fat mass were determined in live, conscious animals using quantitative magnetic resonance spectroscopy (EchoMRI-700TM; Echo MRI).

[2] = tested on: Male Wistar rats; assay: Plasma lipoprotein lipase (LPL) ELISA after subchronic treatment; assay type: in vivo, rat; settings: 25 nmol/kg b.w. sc once daily for 3 weeks, vs vehicle, n = 6/group
Text: as §1, with “assayed. […]” for “assayed.”
Bone resorption was assessed by measurements of degradation product from C-terminal cross linked telopeptides of type 1 collagen (CTX, RatLaps; IDS Immunodiagnostic Systems GmbH, Frankfurt am Main, Germany). CTX values were expressed as percent of the mean of the baseline values (days−2,−1, 0) of the individual animal. […] Resistin was measured using rat resistin enzyme immunoassay kit (Bertinpharma, Montigny le Bretonneux, France). […] Leptin was measured using rat leptin enzyme immunoassay kit (Mediagnost, Reutlingen, Germany). […] Adiponectin was measured using rat adiponectin ELISA kit (Millipore, St. Charles, Missouri, USA). […] LPL was measured using lipoprotein lipase ELISA kit (Cell Biolabs, San Diego, CA, USA). […]

[3] = Pharmacokinetic study of GIP(3-30)NH2, plasma radioimmunoassay; assay type: in vivo, rat
Procedure: Samples were taken at 0, 5, 10, 20, 30, and 45 min post-injection of GIP(3-30)NH2. Blood was immediately aliquoted into tubes containing final concentrations of EDTA 3.9 mmol/l. Samples were centrifuged (3,000 × g for 10 min at 4°C) and the plasma stored at −80°C until analysis. GIP(3-30)NH2 concentrations were measured in plasma with an in-house-developed radioimmunoassay ([50]) using a polyclonal antibody (code no. 95236) raised in rabbits against porcine GIP(1-30)NH2. As standard we used rat GIP(3-30)NH2 and the tracer was ^125I-labeled human GIP(3-30NH2).

[4] = tested on: Male Wistar rats; assay: Bone resorption: serum CTX (RatLaps) during subchronic treatment; assay type: in vivo, rat; settings: 25 nmol/kg b.w. sc once daily for 3 weeks, days 0-21, percent of individual baseline, vs vehicle, n = 6/group
Text: as §1
(§2) To obtain serum, blood samples were allowed to clot for 30 min and were then centrifuged (10 min at 3,000 × g) and stored at −20°C until analysis. To obtain plasma, blood was collected into chilled tubes containing in final concentrations EDTA 3.9 mmol/l and valine-pyrolidide 0.01 mmol/l (a DPP-4 inhibitor, a gift from Novo Nordisk A/S, Bagsvaerd, Denmark). The samples were centrifuged (10 min at 3,000 × g, 4°C) and plasma was kept at −80°C until analysis.
(§3) Bone resorption was assessed by measurements of degradation product from C-terminal cross linked telopeptides of type 1 collagen (CTX, RatLaps; IDS Immunodiagnostic Systems GmbH, Frankfurt am Main, Germany). CTX values were expressed as percent of the mean of the baseline values (days−2,−1, 0) of the individual animal. The intra- and interassay coefficient of variation (CV's) of the assay is in the range 6–10 and 10–15%, respectively. Resistin was measured using rat resistin enzyme immunoassay kit (Bertinpharma, Montigny le Bretonneux, France). The intra-assay CV is <5%, the inter-assay <10%. Leptin was measured using rat leptin enzyme immunoassay kit (Mediagnost, Reutlingen, Germany). The intra- and inter-assay CV are <5%. Adiponectin was measured using rat adiponectin ELISA kit (Millipore, St. Charles, Missouri, USA). The intra- and inter-assay CV are <2 and <9%, respectively. LPL was measured using lipoprotein lipase ELISA kit (Cell Biolabs, San Diego, CA, USA). The intra- and inter-assay CV are <4 and <8%, respectively. All samples were analyzed in duplicates in the same assay to prevent inter assay variation.

[5] = tested on: Male Wistar rats; assay: Plasma adipokines (leptin, resistin, adiponectin) after subchronic treatment; assay type: in vivo, rat; settings: 25 nmol/kg b.w. sc once daily for 3 weeks, vs vehicle, n = 6/group
Text: as §1, §2, §3

[6] = tested on: Male Wistar rats; assay: Plasma and intrahepatic triglycerides after subchronic treatment; assay type: in vivo, rat; settings: 25 nmol/kg b.w. sc once daily for 3 weeks, vs vehicle, n = 6/group; for Intrahepatic triglyceride content: liver lipid extract; for Plasma triglyceride levels: terminal blood
Text: as §1, §2
Total liver lipids were extracted as previously described ([31]). The extracts were evaporated under vacuum in a rotary evaporator and re-suspended in 1 ml of isopropanol for quantification of triglycerides. Plasma and intrahepatic triglycerides were assessed using triglyceride determination kit (Sigma-Aldrich, Saint Louis, USA). All samples were analyzed in duplicates in the same assay to prevent inter assay variation.

[7] = molecular target: rat GIPR; settings: acts as a partial agonist at the rat GIPR, elsewhere ref 22, 25; cited from earlier work
[8] = cited from earlier work
Text: Glucose-dependent insulinotropic peptide (GIP) and glucagon-like peptide-2 (GLP-2) are peptide hormones released from K and L cells of the gastrointestinal tract, respectively ([1], [2]). Both exert their functions through activation of specific G protein-coupled receptors ([3], [4]). The GIP receptor (GIPR) is expressed on different cell type including pancreatic cells, adipocytes ([5]), osteoblasts ([6]), and osteoclasts ([7]). The GLP-2 receptor (GLP-2R) is widely expressed in gastrointestinal tract and central nervous system ([8]–[10]) but fewer are found in the liver, vagal afferents, and ...

[9] = 25 nmol/kg b.w. sc once daily for 3 weeks

Molecule: CC[C@H](C)[C@H](NC(=O)[C@H](CO)NC(=O)[C@H](Cc1ccc(O)cc1)NC(=O)[C@H](CC(=O)O)NC(=O)[C@H](CO)NC(=O)[C@@H](NC(=O)[C@H](Cc1ccccc1)NC(=O)[C@@H](NC(=O)CNC(=O)[C@@H](N)CCC(=O)O)[C@@H](C)O)[C@@H](C)CC)C(=O)N[C@@H](C)C(=O)N[C@@H](CCSC)C(=O)N[C@@H](CC(=O)O)C(=O)N[C@@H](CCCCN)C(=O)N[C@H](C(=O)N[C@@H](CCCNC(=N)N)C(=O)N[C@@H](CCC(N)=O)C(=O)N[C@@H](CCC(N)=O)C(=O)N[C@@H](CC(=O)O)C(=O)N[C@@H](Cc1ccccc1)C(=O)N[C@H](C(=O)N[C@@H](CC(N)=O)C(=O)N[C@@H](Cc1c[nH]c2ccccc12)C(=O)N[C@@H](CC(C)C)C(=O)N[C@@H](CC(C)C)C(=O)N[C@@H](C)C(=O)N[C@@H](CCC(N)=O)C(=O)N[C@@H](CCCCN)C(N)=O)C(C)C)[C@@H](C)CC [GIP(3-30)NH2]
- Lean mass ([1]; 25 nmol/kg b.w. sc once daily for 3 weeks, NMR spectroscopy (EchoMRI)): no difference
- Body fat mass ([1]; 25 nmol/kg b.w. sc once daily for 3 weeks, end of treatment, NMR spectroscopy (EchoMRI)): increased
- Food intake [1, 9]: no measurable effect
- Body weight gain, first 2 weeks of treatment ([1]; 25 nmol/kg b.w. sc once daily): did not show differences
- Body weight gain, third week of treatment ([1]; 25 nmol/kg b.w. sc once daily, p < 0.05): significantly increased
- Plasma lipoprotein lipase (LPL) levels [2]: significantly enhanced
- Cmax ([3]; rat plasma, after administration, in-house radioimmunoassay, data not shown, read-out: Maximum plasma concentration): ~17 nM
- Tmax ([3]; rat plasma, in-house radioimmunoassay, data not shown, read-out: Time of maximum plasma concentration after administration (converted)): 10 min
- Half-life ([3]; rat plasma, in-house radioimmunoassay, read-out: Half-life after injection): ~20 min
- Duration of exposure for the antagonist ([3]; rat, concluded from peak level and half-life): ≤ 2 h
- Serum CTX levels (bone resorption) [4]: did not affect
- Plasma adiponectin ([5]; ELISA): no significant effect
- Plasma leptin ([5]; enzyme immunoassay): increased
- Plasma resistin ([5]; enzyme immunoassay): no significant effect
- Intrahepatic triglyceride content [6]: failed to change
- Plasma triglyceride levels [6]: increased

Molecule: (Pro3)GIP
- Body composition (total fat and lean mass) ([1]; 25 nmol/kg b.w. sc once daily for 3 weeks, NMR (EchoMRI)): not associated with changes
- Food intake [1, 9]: not associated with changes
- Body weight [1, 9]: not associated with changes
- Plasma lipoprotein lipase (LPL) levels [2]: did not modify
- Serum CTX levels (bone resorption) [4]: did not affect
- Ki [7]: 19 nM
- Plasma levels of adipokines ([5]; leptin, resistin, adiponectin (Figure 2)): did not modify
- Intrahepatic triglyceride content [6]: did not modify
- Plasma triglyceride levels [6]: did not modify

Molecule: GLP-2(3-33): Synthetic human GLP-2(3-33), GLP-2R antagonist, from Caslo laboratory (DGSFSDEMNTILDNLAARDFINWLIQTKITD; Glucagon-like peptide 2; UniProt P01275 148-178, looked up, fragment)
- Food intake [1, 9]: did not modify
- Body weight [1, 9]: did not modify
- Serum CTX levels (bone resorption) [4]: did not change

Molecule: GLP-2(11-33): Synthetic human GLP-2(11-33), GLP-2R antagonist, from Caslo laboratory (NTILDNLAARDFINWLIQTKITD; Glucagon-like peptide 2; UniProt P01275 156-178, looked up, fragment)
- Food intake [1, 9]: did not modify
- Body weight [1, 9]: did not modify
- Serum CTX levels (bone resorption) [4]: did not change

Molecule: Glucose-dependent insulinotropic peptide [GIP]
- Half-life ([8]; humans, DPP-4 mediated degradation): about 7 min

Molecule: glucagon-like peptide-2 [GLP-2]
- Half-life ([8]; human, in vivo): about 7 min
